The results in this text go back to patent publication US20090105220A1, “PROCESS FOR THE PREPARATION OF NONPEPTIDE SUBSTITUTED SPIROBENZOAZEPINE DERIVATIVES” (priority 2003, published 2009).

The structures appear in SMILES notation. Structures can show the parent of a compound that is named as a salt.

Consider `O=C(O)C1=C[C@@]2(CC1)CCN(C(=O)c1ccc(NC(=O)c3ccccc3-c3ccccc3)cc1)c1ccccc1C2`, for which the melting point lay in the range of 263 to 265 °C.

For the compound `CN(C)CCNC(=O)C1=C[C@@]2(CC1)CCN(C(=O)c1ccc(NC(=O)c3ccccc3F)cc1)c1ccccc1C2` (as salt: phosphate), the melting point is 148 to 158 °C (dec.).

For `CN(C)CCNC(=O)C1=C[C@@]2(CC1)CCN(C(=O)c1ccc(NC(=O)c3ccccc3-c3ccccc3)cc1)c1ccccc1C2.O=C(O)c1ccccc1`, the melting point was 180 to 185 °C (dec.).
